From ChEMBL document CHEMBL5338727, “From (Tool)Bench to Bedside: The Potential of Necroptosis Inhibitors” (J Med Chem, 2023)
Where “and” joins values, the source holds several entries; their conditions need not be identical. Equal entries are not always repeated. Values belong to the molecule of their own block, whether it stands above or below them.

How the values were obtained:
[1] = target: T1, Receptor-interacting serine/threonine-protein kinase 3 (Homo sapiens, UniProt Q9Y572); assay: Inhibition of human RIPK3 using MBP as substrate by [gamma33-ATP] based radiometric assay
[2] = Volume of distribution at steady state in 2 hrs fasted CD-1 mouse at 3 mg/kg, po; format: ADME, organism-based; conditions: in vivo
[3] = Clearance in 2 hrs fasted CD-1 mouse at 3 mg/kg, po; format: ADME, organism-based; conditions: in vivo
[4] = AUC (last) in 2 hrs fasted CD-1 mouse at 3 mg/kg, po; format: ADME, organism-based; design: dose 3 mg/kg, route po; conditions: in vivo
[5] = Oral bioavailability in 2 hrs fasted CD-1 mouse at 3 mg/kg; format: ADME, organism-based; conditions: in vivo
[6] = target: Receptor-interacting serine/threonine-protein kinase 2 (Homo sapiens) (UniProt O43353); assay: Inhibition of RIPK2 (unknown origin) at 1 uM relative to control
[7] = Clearance in C57BL/6 mouse plasma at 5 mg/kg, iv; format: ADME, organism-based
[8] = Half life in C57BL/6 mouse plasma at 5 mg/kg, iv; format: ADME, organism-based
[9] = Volume of distribution in C57BL/6 mouse plasma at 5 mg/kg, iv; format: ADME, organism-based
Jurkat [10] = assay: Anti-necroptotic activity in FADD-deficient human Jurkat cells assessed as reduction in cell growth preincubated for 30 mins followed by TNFalpha stimulation incubated overnight by CellTiter-Glo assay; format: functional, cell-based
[11] = Anti-necroptotic activity in mouse dermal fibroblast assessed as inhibition in T/S/Q induced necroptosis measured by flow cytometry; format: functional, cell-based
[12] = Anti-necroptotic activity in mouse BMDM cells assessed as inhibition of TNF/zVAD.fmk induced necroptosis pretreated for 30 mins measured after 19 to 21 hrs by CellTiter-Glo Luminescent Cell Viability assay
Jurkat [13] = assay: Anti-necroptotic activity in FADD null human Jurkat cells assessed as inhibition of T/S/Z induced necroptosis by CellTiter-Glo Luminescent Cell Viability assay; format: functional, cell-based
HT-29 = assay: Anti-necroptotic activity in human HT-29 cells assessed as inhibition of T/S/Z induced necroptosis by CellTiter-Glo Luminescent Cell Viability assay; format: functional, cell-based
[14] = target: T2, Receptor-interacting serine/threonine-protein kinase 1 (Homo sapiens, UniProt Q13546); assay: Binding affinity to RIPK1 (unknown origin) by ADP-GlO assay
T2 sequence (Q13546 whole entry): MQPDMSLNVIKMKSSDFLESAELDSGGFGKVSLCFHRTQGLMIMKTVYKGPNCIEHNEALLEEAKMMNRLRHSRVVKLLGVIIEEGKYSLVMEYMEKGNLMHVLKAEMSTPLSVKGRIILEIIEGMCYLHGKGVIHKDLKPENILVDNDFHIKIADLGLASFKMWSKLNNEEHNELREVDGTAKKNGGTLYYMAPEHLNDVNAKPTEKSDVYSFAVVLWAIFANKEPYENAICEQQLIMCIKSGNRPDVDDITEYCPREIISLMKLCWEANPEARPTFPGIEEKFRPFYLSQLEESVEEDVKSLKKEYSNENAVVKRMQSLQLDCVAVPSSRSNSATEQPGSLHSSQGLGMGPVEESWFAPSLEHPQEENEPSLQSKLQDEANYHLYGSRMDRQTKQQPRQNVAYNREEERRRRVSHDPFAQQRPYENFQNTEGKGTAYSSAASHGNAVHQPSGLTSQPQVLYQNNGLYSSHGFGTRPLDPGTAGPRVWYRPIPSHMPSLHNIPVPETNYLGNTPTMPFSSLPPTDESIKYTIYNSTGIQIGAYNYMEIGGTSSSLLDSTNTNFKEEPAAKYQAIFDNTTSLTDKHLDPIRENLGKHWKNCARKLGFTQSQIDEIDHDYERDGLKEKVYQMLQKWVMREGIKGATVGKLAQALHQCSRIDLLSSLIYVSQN

CYP2C19 = CYP2C19 (Homo sapiens, UniProt P33261); assay: Inhibition of CYP2C19 (unknown origin) at 10 uM; format: ADME
[15] = AUC in ICR mouse at 10 mg/kg, po; format: ADME, organism-based; design: dose 10 mg/kg, route po; conditions: in vivo
[16] = Metabolic stability in mouse liver microsomes assessed as half life; format: ADME, Microsome
[17] = Volume of distribution in ICR mouse at 2 mg/kg, iv; format: ADME, organism-based; conditions: in vivo
[18] = Metabolic stability in mouse liver microsomes assessed as intrinsic clearance; format: ADME, Microsome; conditions: read-out: CLH
CYP2C9 = CYP2C9 (Homo sapiens, UniProt P11712); assay: Inhibition of CYP2C9 (unknown origin) at 10 uM; format: ADME
[19] = Half life in ICR mouse at 2 mg/kg, iv; format: ADME, organism-based; conditions: in vivo
[20] = target: Voltage-gated inwardly rectifying potassium channel KCNH2 (Homo sapiens, UniProt Q12809); assay: Inhibition of hERG at 10 uM; format: toxicity
[21] = Clearance in ICR mouse at 2 mg/kg, iv; format: ADME, organism-based; conditions: in vivo
CYP1A2 = target: T3, CYP1A2 (Homo sapiens, UniProt P05177); assay: Inhibition of CYP1A2 (unknown origin) at 10 uM; format: ADME
T3 sequence (P05177 whole entry): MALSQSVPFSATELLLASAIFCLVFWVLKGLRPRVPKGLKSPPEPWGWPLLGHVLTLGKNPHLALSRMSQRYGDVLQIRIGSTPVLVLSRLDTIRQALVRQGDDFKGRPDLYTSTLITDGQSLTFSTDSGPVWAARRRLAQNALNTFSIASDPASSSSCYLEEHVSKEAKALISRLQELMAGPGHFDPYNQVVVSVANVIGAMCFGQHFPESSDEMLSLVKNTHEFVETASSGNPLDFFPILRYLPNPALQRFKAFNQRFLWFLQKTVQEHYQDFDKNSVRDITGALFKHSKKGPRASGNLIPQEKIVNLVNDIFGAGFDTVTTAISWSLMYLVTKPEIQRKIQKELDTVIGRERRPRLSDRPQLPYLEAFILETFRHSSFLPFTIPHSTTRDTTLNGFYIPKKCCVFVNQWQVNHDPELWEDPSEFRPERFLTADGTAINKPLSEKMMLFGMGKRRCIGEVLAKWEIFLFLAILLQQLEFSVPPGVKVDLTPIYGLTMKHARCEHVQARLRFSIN

CYP2D6 = CYP2D6 (Homo sapiens, UniProt P10635); assay: Inhibition of CYP2D6 (unknown origin) at 10 uM; format: ADME
[22] = Metabolic stability in rat liver microsomes assessed as intrinsic clearance; format: ADME, Microsome; conditions: read-out: CLH
[23] = Metabolic stability in rat liver microsomes assessed as half life; format: ADME, Microsome
CYP3A4 = CYP3A4 (Homo sapiens, UniProt P08684); assay: Inhibition of CYP3A4 (unknown origin) at 10 uM; format: ADME
[24] = target: T1, Receptor-interacting serine/threonine-protein kinase 3; assay: Inhibition of RIPK3 (unknown origin) expressed in NIH3T3 cells assessed as inhibition of dimerizer-induced pMLKL level by Western blot analysis; format: cell-based

T1 sequence (Q9Y572 whole entry): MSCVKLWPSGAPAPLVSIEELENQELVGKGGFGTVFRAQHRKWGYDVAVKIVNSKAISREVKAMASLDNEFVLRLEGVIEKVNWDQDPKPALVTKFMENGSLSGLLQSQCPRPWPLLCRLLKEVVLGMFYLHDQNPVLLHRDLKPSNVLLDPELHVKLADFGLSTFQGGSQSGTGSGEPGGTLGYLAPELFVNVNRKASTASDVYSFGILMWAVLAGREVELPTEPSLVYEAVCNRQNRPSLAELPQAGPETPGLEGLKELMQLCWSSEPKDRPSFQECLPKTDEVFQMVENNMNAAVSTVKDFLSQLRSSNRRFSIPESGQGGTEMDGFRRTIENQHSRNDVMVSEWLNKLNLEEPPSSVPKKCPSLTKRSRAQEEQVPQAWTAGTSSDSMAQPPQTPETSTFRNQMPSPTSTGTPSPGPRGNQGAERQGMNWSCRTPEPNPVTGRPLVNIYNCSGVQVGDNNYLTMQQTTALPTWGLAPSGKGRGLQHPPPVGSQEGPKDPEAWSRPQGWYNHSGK
Sequence of Receptor-interacting serine/threonine-protein kinase 2 (Homo sapiens) (O43353 whole entry): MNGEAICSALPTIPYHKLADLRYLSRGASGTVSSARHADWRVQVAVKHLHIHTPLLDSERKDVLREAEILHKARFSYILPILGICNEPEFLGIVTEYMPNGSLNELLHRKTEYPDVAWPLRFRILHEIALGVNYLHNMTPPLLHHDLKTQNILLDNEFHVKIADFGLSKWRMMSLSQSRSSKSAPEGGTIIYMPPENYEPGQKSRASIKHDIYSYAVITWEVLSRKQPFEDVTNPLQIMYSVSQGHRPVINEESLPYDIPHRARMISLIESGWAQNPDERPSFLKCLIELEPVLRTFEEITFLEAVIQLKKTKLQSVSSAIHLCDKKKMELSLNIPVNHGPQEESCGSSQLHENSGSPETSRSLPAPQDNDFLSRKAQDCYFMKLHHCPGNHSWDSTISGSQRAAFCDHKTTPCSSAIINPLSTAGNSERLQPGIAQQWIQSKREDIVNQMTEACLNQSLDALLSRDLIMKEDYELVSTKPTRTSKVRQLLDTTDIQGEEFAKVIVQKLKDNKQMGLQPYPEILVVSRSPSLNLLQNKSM
Sequence of CYP2C9 (P11712 whole entry): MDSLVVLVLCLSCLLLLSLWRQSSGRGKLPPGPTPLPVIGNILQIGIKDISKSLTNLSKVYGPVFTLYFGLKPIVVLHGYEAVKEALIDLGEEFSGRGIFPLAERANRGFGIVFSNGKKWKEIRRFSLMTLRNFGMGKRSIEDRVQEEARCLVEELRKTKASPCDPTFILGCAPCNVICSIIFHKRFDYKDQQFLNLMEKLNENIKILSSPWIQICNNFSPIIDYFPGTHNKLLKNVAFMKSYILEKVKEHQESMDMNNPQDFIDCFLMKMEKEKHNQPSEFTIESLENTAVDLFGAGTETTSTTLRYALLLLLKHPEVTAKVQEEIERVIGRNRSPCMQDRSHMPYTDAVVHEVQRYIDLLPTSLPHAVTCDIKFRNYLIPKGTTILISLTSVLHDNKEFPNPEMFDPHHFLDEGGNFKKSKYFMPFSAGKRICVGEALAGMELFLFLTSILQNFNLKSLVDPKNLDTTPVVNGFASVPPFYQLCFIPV
Sequence of CYP3A4 (P08684 whole entry): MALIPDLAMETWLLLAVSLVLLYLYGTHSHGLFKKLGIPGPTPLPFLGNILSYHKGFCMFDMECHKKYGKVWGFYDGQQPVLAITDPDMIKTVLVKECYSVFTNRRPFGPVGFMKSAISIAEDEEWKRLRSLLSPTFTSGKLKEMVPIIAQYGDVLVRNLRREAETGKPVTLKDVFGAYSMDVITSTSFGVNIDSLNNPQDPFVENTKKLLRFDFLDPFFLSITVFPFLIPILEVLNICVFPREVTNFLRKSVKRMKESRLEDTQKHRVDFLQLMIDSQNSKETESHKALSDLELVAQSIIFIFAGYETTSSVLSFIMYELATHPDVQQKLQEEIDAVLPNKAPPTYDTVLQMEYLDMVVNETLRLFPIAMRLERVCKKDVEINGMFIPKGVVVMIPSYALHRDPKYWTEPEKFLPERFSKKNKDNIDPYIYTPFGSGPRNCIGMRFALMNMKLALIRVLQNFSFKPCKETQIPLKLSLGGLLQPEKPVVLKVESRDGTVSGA
Sequence of Voltage-gated inwardly rectifying potassium channel KCNH2 (Q12809 whole entry): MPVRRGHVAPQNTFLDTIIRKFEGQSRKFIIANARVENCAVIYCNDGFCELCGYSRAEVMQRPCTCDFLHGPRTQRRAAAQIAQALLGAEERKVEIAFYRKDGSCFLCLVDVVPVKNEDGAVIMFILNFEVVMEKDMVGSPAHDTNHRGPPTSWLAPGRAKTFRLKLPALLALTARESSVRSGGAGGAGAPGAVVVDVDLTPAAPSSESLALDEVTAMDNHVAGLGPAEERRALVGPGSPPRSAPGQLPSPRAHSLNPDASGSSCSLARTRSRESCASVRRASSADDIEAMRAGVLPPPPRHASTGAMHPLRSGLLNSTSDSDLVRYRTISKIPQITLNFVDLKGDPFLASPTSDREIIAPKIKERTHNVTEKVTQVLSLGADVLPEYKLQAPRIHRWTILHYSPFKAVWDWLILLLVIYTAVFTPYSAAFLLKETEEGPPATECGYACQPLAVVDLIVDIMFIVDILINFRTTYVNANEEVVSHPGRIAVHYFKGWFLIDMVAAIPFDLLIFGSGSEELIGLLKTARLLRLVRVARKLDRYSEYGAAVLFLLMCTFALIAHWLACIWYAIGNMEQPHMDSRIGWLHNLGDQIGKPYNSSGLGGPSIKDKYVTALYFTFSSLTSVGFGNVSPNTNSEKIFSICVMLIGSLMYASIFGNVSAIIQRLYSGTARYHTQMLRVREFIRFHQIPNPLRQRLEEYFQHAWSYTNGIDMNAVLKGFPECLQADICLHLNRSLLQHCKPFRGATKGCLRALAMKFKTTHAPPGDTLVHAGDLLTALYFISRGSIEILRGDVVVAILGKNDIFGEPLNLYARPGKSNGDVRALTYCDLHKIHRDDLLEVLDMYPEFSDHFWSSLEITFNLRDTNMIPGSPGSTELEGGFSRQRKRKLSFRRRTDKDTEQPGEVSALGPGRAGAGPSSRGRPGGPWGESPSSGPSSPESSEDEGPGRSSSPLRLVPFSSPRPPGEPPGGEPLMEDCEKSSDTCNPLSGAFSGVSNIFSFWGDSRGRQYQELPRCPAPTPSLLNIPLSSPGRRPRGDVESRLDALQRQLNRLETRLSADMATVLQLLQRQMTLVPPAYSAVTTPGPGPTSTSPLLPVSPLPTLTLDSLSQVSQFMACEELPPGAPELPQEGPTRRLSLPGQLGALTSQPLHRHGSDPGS
Sequence of CYP2D6 (P10635 whole entry): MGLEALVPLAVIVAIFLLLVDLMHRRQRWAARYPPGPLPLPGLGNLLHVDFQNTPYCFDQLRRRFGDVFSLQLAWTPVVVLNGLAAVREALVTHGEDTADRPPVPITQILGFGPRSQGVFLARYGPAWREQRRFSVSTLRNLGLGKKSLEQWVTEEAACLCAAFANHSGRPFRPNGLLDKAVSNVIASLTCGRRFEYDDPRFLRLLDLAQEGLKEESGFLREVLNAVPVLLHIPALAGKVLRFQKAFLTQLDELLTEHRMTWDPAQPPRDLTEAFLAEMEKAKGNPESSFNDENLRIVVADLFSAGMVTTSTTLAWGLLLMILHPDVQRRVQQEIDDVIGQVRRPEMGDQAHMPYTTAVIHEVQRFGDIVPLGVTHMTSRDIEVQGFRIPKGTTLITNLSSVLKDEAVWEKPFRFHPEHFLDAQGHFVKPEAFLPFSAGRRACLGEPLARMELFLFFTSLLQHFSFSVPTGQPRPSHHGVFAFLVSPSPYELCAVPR
Sequence of CYP2C19 (P33261 whole entry): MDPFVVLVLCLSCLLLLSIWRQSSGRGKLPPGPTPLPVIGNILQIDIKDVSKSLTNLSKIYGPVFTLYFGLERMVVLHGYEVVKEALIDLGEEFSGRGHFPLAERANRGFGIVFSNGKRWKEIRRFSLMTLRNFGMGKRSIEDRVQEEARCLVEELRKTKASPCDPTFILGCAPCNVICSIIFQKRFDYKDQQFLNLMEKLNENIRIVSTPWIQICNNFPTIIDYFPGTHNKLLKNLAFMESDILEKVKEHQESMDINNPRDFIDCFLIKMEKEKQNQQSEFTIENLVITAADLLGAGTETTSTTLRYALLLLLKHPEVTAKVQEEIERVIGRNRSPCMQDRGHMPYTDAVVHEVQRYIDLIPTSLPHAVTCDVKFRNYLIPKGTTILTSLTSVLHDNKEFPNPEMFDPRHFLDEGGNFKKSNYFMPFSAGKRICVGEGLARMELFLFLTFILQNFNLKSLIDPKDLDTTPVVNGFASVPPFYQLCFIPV

SMILES: CN1C(=O)[C@@H](NC(=O)c2nc(Cc3ccccc3)n[nH]2)COc2ccc(C#CC3CC3)cc21
Vdss [2]: 0.902 L/kg | CL/F [3]: 3.54 mL/min/kg | AUClast [4]: 15000 ng·h/mL | bioavailability [5]: 99%

SMILES: Cc1cc(-c2cnc(N)c3c(-c4ccc5scnc5c4)csc23)n(C)n1
inhibition [6]: 84%

SMILES: COc1cc2c(cn1)N(C)C(=O)[C@@H](NC(=O)c1nc3n(n1)[C@H](c1ccccc1)CC3)CC2
clearance [7]: 49.2 mL/min/kg | half-life [8]: 31.8 min | Vd [9]: 1.84 L/kg

SMILES: CN(c1ccc(NC(=O)Nc2ccc(OC(F)(F)F)cc2)cc1)c1ccnc(Nc2cccc(S(N)(=O)=O)c2)n1 [GW806742X]
EC50 (Jurkat [10]): 1850 nM | IC50 [11]: < 50 nM

SMILES: CC(C)(C)C(=O)N1N=CC[C@H]1c1ccccc1
IC50 [12]: 3 nM

SMILES: COc1nccnc1NS(=O)(=O)c1ccc(NC(=O)/C=C/c2ccc([N+](=O)[O-])s2)cc1
IC50 (Jurkat [13]): < 1000 nM | IC50 (HT-29): < 1000 nM and 124 nM

More lines, main results first:

EC50 [1]: 20.8 nM
SMILES: Cc1ccc(Oc2ccnc3cc(-c4cnn(C5CCNCC5)c4)ccc23)cc1

inhibition [6]: 76%
SMILES: CC(C)S(=O)(=O)c1ccc2nccc(Nc3ccc4scnc4c3)c2c1

Kd [14]: 105 nM
SMILES: N#Cc1c(Oc2ccc(F)c(NC(=O)Cc3cccc(C(F)(F)F)c3)c2)ccc2nc(NC(=O)C3CC3)sc12

inhibition at 10 µM (CYP2C19): < 10% | AUC [15]: 8200 ng·h/mL | half-life [16]: 26 min | Vd [17]: 4.4 L/kg | CLint scaled [18]: 212 mL/min/kg | inhibition at 10 µM (CYP2C9): < 10% | half-life [19]: 90 min | clearance [21]: 33 mL/min/kg | inhibition at 10 µM (CYP1A2): < 10% | inhibition at 10 µM (CYP2D6): < 10% | CLint scaled [22]: 67 mL/min/kg | half-life [23]: 36 min | inhibition at 10 µM (CYP3A4): < 10%
SMILES: Cl.O=S1(=O)C=C(C2CC2)c2cc3nccc(Nc4ccc5scnc5c4)c3cc21
IC50 [20]: > 10000 nM

EC50 [24]: 73.6 nM
SMILES: Cc1ccc(O)cc1Nc1ccnc2cc(-c3ccccn3)ccc12
